Data set [1] in a line: Solubility of the peptide product in MeOH. Type of data set: physicochemical. To be noted: fully protected peptide made with pseudoproline/Dmb dipeptides, 'as high as', read-out: solubility (concentration easily achieved). The text has this: To improve the peptide synthesis yields and purities, as well as the solubilities of crude products, we attempted various strategies, including the replacement of the synthesized chlorotrityl resin with commercially available NovaSyn® TGT resin (preloaded with Fmoc-amino acids), the use of Ser/Thr-derived oxazolidines (pseudoprolines) and Dmb (2,4-dimethoxybenzyl)dipeptides, 1, 2, 3 and 4 shown below. While 1, 2 and 4 are available in large scale, 3 had to be prepared from a multistep synthesis. These dipeptides could be incorporated into the growing peptide chain in the same manner as normal amino acids activated by HATU. The synthesis outlined below exploited all the beneficial properties of these strategies and produced […] as determined by LC-MS.

The conditions of data set [2]: compared to rHuEPO; cited from earlier work.
A further data set concerns the target T1, EPO-R (Homo sapiens, UniProt P19235).
T1 sequence (P19235 25-508): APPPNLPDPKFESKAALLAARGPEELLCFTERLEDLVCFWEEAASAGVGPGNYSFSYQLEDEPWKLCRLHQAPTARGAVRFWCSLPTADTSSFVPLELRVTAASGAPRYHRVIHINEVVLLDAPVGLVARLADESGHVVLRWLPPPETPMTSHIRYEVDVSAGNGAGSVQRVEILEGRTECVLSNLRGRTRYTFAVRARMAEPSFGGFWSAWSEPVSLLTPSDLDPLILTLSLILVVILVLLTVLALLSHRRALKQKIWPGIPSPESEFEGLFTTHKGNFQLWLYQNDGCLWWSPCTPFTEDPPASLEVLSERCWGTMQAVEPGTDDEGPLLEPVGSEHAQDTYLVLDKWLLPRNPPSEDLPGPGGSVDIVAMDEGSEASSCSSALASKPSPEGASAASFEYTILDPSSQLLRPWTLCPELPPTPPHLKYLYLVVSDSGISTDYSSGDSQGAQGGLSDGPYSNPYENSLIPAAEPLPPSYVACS
To be noted: in vitro; compared to rHuEPO; cited from earlier work.

Converted amounts (≈) assume the structure as drawn.

Regarding `COc1ccc(CN(C(=O)[C@H](CC(=O)OCc2ccc(NC(CC(C)C)=C3C(=O)CC(C)(C)CC3=O)cc2)NC(=O)[C@@H](NC(=O)[C@H](Cc2cn(C(c3ccccc3)(c3ccccc3)c3ccccc3)cn2)NC(=O)[C@H](CC(C)C)NC(=O)[C@H](CCC(=O)NC(c2ccccc2)(c2ccccc2)c2ccccc2)NC(=O)[C@H](CC(C)C)NC(=O)[C@@H]2CCCN2C(=O)[C@H](CCC(=O)OCc2ccc(NC(CC(C)C)=C3C(=O)CC(C)(C)CC3=O)cc2)NC(=O)[C@H](Cc2cn(C(=O)OC(C)(C)C)c3ccccc23)NC(=O)[C@@H]2CCCN2C(=O)[C@H](CCC(=O)NC(c2ccccc2)(c2ccccc2)c2ccccc2)NC(=O)[C@H](COC(C)(C)C)NC(=O)[C@@H]2COC(C)(C)N2C(=O)[C@H](CC(=O)OC(C)(C)C)NC(=O)[C@@H](NC(=O)[C@H](CC(C)C)NC(=O)[C@H](CC(C)C)NC(=O)[C@H](C)NC(=O)[C@@H](N)CCC(=O)NC(c2ccccc2)(c2ccccc2)c2ccccc2)C(C)C)C(C)C)[C@@H](CCCCNC(CC(C)C)=C2C(=O)CC(C)(C)CC2=O)C(=O)N[C@@H](C)C(=O)N[C@H](C(=O)N2[C@H](C(=O)NCC(=O)N[C@@H](CC(C)C)C(=O)N[C@@H](CCCNC(=N)NS(=O)(=O)c3c(C)c(C)c4c(c3C)CC(C)(C)O4)C(=O)N[C@@H](COC(C)(C)C)C(=O)N[C@@H](CC(C)C)C(=O)N3[C@H](C(=O)N[C@H](C(=O)N[C@@H](CC(C)C)C(=O)N[C@@H](CC(C)C)C(=O)N[C@@H](CCCNC(=N)NS(=O)(=O)c4c(C)c(C)c5c(c4C)CC(C)(C)O5)C(=O)N[C@@H](C)C(=O)N[C@@H](CC(C)C)C(=O)NCC(=O)O)[C@@H](C)OC(C)(C)C)[C@@H](C)OC3(C)C)COC2(C)C)C(C)C)c(OC)c1` [EPO(78-113)], the solubility in data set [1] worked out at 4.6 mM (≈ 31.3 mg/mL).
darbepoetin alfa: the activity in vivo entry in data set [2] is recorded as “remained the same”. Besides, the “affinity for the EPO-R” value on EPO-R was “diminished by approximately one-fourth”.

The values are drawn from patent US8754192B2, “Compositions comprising homogeneously glycosylated erythropoietin” (Sloan-Kettering Institute for Cancer Research, priority 2006, dated 2014).
